Experiment in all cases: biochemical
Parameters in all cases: species or system human cell line lysate

Test [1] has as its target STE20-like serine/threonine-protein kinase ; SLK ; Q9H2G2 (Homo sapiens, UniProt Q9H2G2).
In test [2] the target is Leucine-rich repeat serine/threonine-protein kinase 2 ; LRRK2 ; Q5S007 (Homo sapiens, UniProt Q5S007).
Test [3] addresses Isoform 2 of Tyrosine-protein kinase Lyn ; LYN ; P07948-2 (Homo sapiens, UniProt P07948).
The target of test [4] is 5'-AMP-activated protein kinase catalytic subunit alpha-2 ; PRKAA2 ; P54646 (Homo sapiens, UniProt P54646).
Chain of 5'-AMP-activated protein kinase catalytic subunit alpha-2 ; PRKAA2 ; P54646 (P54646 whole entry, one chain of several): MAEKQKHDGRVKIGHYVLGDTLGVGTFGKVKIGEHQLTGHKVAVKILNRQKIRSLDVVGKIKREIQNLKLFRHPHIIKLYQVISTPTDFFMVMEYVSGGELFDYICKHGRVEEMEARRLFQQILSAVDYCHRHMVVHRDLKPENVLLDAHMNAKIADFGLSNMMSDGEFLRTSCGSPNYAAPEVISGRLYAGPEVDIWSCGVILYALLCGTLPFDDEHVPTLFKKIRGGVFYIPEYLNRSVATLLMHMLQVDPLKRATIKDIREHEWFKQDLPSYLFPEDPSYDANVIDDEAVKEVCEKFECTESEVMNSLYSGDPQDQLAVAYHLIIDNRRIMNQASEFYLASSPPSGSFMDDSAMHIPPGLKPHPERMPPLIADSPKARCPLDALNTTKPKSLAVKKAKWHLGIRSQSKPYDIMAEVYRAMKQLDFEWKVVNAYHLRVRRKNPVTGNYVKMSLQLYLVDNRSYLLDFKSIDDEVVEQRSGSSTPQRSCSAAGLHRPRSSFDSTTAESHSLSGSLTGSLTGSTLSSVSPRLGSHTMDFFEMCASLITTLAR
Test [5] deals with Mitogen-activated protein kinase kinase kinase 9 ; MAP3K9 ; P80192 (Homo sapiens, UniProt P80192).
Test [6] deals with Nucleoside diphosphate kinase, mitochondrial ; NME4 ; O00746 (Homo sapiens, UniProt O00746).
Chain of Nucleoside diphosphate kinase, mitochondrial ; NME4 ; O00746 (O00746 whole entry): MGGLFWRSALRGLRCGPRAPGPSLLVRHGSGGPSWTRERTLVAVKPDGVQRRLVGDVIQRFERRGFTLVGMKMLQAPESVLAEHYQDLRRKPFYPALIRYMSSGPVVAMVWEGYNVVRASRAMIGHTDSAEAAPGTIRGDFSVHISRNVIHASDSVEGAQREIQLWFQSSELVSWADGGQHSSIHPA
For test [7], the target named is Mitogen-activated protein kinase kinase kinase 2 ; MAP3K2 ; Q9Y2U5 (Homo sapiens, UniProt Q9Y2U5).
Test [8] deals with Serine/threonine-protein kinase Chk1 ; CHEK1 ; O14757 (Homo sapiens, UniProt O14757).
Chain of Serine/threonine-protein kinase Chk1 ; CHEK1 ; O14757 (O14757 whole entry, one chain of several): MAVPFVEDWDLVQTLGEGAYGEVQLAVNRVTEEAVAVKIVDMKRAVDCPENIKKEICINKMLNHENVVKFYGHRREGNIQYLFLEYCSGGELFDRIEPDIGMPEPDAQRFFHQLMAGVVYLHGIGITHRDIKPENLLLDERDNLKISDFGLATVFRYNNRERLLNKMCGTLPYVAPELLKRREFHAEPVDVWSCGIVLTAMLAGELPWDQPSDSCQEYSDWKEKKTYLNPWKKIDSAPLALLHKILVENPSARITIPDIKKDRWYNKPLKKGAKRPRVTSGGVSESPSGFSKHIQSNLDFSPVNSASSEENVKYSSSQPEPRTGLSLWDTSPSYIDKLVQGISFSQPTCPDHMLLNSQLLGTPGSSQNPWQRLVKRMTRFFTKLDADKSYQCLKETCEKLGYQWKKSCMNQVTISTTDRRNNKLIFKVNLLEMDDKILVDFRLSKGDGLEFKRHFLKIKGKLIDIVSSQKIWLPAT
Test [9] addresses Dual specificity mitogen-activated protein kinase kinase 6 ; MAP2K6 ; P52564 (Homo sapiens, UniProt P52564).
In test [10] the target is Calcium/calmodulin-dependent protein kinase type II subunit alpha ; CAMK2A ; Q9UQM7 (Homo sapiens, UniProt Q9UQM7).
Chain of Calcium/calmodulin-dependent protein kinase type II subunit alpha ; CAMK2A ; Q9UQM7 (Q9UQM7 whole entry, one chain of several): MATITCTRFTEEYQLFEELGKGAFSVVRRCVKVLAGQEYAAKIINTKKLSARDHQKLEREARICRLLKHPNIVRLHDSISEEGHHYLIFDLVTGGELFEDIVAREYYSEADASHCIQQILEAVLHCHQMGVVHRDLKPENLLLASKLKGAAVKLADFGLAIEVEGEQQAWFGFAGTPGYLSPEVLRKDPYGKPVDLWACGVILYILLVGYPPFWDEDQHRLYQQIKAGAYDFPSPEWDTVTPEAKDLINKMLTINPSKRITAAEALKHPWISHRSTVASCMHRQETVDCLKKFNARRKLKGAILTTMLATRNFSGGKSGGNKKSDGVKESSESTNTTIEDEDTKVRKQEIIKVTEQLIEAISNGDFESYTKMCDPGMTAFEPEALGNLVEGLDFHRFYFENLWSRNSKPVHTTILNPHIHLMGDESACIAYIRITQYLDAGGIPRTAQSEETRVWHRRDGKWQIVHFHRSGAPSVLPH
Test [11] has as its target Casein kinase II subunit alpha' ; CSNK2A2 ; P19784 (Homo sapiens, UniProt P19784).
Test [12] has as its target Mitogen-activated protein kinase kinase kinase kinase 3 ; MAP4K3 ; Q8IVH8 (Homo sapiens, UniProt Q8IVH8).
Test [13] has as its target Calcium/calmodulin-dependent protein kinase type II subunit delta ; CAMK2D ; Q13557 (Homo sapiens, UniProt Q13557).
Test [14] addresses Ketosamine-3-kinase ; FN3KRP ; Q9HA64 (Homo sapiens, UniProt Q9HA64).
Test [15] addresses Casein kinase I isoform gamma-2 ; CSNK1G2 ; P78368 (Homo sapiens, UniProt P78368).
Test [16] concerns the target Phosphatidylinositol 4-phosphate 3-kinase C2 domain-containing subunit ; PIK3C2B ; O00750 (Homo sapiens, UniProt O00750).
Test [17] has as its target Casein kinase I isoform gamma-1 ; CSNK1G1 ; Q9HCP0 (Homo sapiens, UniProt Q9HCP0).
Test [18] addresses SNF-related serine/threonine-protein kinase ; SNRK ; Q9NRH2 (Homo sapiens, UniProt Q9NRH2).
In test [19] the target is Serine/threonine-protein kinase ULK1 ; ULK1 ; O75385 (Homo sapiens, UniProt O75385).
Chain of Serine/threonine-protein kinase ULK1 ; ULK1 ; O75385 (O75385 whole entry, one chain of several): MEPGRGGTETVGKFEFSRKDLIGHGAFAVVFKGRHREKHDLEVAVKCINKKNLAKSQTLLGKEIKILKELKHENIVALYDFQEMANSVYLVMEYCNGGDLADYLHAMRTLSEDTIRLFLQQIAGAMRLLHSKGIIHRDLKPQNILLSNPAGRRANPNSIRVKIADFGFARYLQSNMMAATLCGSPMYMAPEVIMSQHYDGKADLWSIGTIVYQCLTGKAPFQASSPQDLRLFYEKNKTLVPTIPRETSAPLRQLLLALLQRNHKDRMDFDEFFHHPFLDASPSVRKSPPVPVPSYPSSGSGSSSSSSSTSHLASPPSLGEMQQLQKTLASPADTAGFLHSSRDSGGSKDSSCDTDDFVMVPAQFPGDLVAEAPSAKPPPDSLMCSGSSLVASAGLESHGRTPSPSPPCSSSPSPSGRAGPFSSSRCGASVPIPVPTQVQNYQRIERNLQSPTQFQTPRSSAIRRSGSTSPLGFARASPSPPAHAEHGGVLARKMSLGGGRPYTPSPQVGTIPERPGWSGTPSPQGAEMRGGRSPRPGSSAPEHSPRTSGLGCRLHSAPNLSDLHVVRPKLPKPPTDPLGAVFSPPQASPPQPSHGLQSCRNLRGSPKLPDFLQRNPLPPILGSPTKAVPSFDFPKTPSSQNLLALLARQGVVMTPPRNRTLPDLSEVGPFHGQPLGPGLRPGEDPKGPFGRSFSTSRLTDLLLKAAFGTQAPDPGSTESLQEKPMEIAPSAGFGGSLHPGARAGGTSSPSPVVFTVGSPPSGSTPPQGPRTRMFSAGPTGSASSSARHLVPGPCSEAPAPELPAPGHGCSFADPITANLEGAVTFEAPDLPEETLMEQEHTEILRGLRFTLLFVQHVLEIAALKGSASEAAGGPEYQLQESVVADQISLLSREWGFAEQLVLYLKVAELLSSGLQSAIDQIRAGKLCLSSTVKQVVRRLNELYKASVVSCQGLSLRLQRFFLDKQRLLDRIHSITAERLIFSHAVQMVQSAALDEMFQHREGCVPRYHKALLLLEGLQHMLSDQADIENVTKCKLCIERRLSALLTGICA
Test [20] concerns the target Dual specificity tyrosine-phosphorylation-regulated kinase 1A ; DYRK1A ; Q13627 (Homo sapiens, UniProt Q13627).
Test [21] addresses Isoform 2 of 5'-AMP-activated protein kinase catalytic subunit alpha-1 ; PRKAA1 ; Q13131-2 (Homo sapiens, UniProt Q13131).
Test [22] concerns the target Serine/threonine-protein kinase Sgk3 ; SGK3 ; Q96BR1 (Homo sapiens, UniProt Q96BR1).
Test [23] addresses Isoform 6 of Calcium/calmodulin-dependent protein kinase type II subun ; CAMK2G ; Q13555-6 (Homo sapiens, UniProt Q13555).
Where [24] appears, read: read-out: BAY-1143572 (10 µM) / %Intensity relative to DMSO.
Where [25] appears, read: read-out: BAY-1251152 (10 µM) / %Intensity relative to DMSO.

From doi:10.1101/2024.08.13.607785v1 (biorxiv, 2024) come the findings set out here.

Where two headings read alike, the source gives them in different places.

Chain of Phosphatidylinositol 4-phosphate 3-kinase C2 domain-containing subunit ; PIK3C2B ; O00750 (O00750 whole entry, the tested form may be a part, canonical isoform, one chain of several): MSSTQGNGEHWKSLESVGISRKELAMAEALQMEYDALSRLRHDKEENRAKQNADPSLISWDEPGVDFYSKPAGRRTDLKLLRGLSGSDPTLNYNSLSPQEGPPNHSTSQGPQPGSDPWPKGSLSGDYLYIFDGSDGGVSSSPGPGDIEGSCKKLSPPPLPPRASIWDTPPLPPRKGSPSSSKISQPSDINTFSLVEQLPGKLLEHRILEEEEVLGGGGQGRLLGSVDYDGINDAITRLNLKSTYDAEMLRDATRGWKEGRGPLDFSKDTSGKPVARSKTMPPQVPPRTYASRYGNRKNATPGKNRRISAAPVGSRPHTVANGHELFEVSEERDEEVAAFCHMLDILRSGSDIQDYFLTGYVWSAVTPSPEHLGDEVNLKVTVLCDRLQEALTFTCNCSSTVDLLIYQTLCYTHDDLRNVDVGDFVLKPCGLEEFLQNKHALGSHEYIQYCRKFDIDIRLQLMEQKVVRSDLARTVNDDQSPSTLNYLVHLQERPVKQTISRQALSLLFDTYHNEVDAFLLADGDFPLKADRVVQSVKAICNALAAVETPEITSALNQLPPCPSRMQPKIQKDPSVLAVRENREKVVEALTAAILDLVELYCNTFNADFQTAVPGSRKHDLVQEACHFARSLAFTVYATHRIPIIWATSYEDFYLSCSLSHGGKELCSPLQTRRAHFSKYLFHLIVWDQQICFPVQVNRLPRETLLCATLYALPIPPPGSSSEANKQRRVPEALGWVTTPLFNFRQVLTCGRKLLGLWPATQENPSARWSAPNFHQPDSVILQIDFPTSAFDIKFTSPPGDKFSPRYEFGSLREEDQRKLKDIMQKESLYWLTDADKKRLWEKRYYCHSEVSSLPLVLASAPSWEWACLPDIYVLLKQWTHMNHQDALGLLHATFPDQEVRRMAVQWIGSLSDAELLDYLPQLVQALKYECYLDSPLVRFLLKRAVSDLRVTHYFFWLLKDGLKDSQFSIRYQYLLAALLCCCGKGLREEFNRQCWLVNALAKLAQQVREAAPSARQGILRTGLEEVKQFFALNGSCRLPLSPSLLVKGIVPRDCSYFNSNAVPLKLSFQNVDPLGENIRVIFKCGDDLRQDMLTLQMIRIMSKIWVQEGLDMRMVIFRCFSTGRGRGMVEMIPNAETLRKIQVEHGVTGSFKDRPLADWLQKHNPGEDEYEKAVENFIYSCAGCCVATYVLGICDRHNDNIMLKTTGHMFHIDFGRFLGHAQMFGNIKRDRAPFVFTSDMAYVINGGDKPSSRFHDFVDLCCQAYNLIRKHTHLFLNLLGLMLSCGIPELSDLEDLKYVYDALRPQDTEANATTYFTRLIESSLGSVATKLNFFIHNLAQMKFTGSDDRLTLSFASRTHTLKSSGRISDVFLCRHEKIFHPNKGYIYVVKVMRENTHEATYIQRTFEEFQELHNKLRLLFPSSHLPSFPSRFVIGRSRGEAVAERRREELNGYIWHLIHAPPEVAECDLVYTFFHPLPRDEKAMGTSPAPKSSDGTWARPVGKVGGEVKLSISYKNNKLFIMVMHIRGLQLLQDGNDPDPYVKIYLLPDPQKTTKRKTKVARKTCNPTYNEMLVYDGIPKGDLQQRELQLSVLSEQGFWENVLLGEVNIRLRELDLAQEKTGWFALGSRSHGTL
Chain of Casein kinase I isoform gamma-1 ; CSNK1G1 ; Q9HCP0 (Q9HCP0 whole entry, canonical isoform): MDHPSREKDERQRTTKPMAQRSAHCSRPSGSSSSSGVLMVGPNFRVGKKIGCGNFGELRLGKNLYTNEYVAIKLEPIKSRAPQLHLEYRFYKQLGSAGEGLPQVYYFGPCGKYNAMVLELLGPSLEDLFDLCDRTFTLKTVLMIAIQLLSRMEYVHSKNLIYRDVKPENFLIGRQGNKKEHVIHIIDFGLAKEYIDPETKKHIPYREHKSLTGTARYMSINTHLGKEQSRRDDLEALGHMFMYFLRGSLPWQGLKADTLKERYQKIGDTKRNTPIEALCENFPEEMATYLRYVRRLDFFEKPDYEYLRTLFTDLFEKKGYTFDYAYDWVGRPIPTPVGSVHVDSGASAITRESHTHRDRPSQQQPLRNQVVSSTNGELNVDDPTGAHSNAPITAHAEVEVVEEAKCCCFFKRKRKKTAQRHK

In the case of `COc1cc(F)ccc1-c1ncnc(Nc2cccc(C[S@](C)(=N)=O)c2)n1` [BAY-1143572], the remaining activity at 10 µM in test [1] (setting [24]) stood at 97.7%; in test [2] (setting [24]), 109%; in test [3] (setting [24]) it was 102%; in test [4] (setting [24]) it was 115%; in [5] (setting [24]), 87.2%; in test [6] (setting [24]) it was 79.4%. The remaining activity at 10 µM came to 106% in [7] (setting [24]); 106% in test [8] (setting [24]); 142% in test [9] (setting [24]); 130% in test [10] (setting [24]); 114% in test [11] (setting [24]); 109% in [12] (setting [24]). The remaining activity at 10 µM in [13] (setting [24]) stood at 94.4%; in test [14] (setting [24]) it was 117%; in [15] (setting [24]), 137%; in [16] (setting [24]), 79.7%; in test [17] (setting [24]), 175%; in test [18] (setting [24]) it was 191%. Besides, the remaining activity at 10 µM in test [19] (setting [24]) came to 132%; in test [20] (setting [24]), 76.3%; in test [21] (setting [24]), 99.5%; in [22] (setting [24]), 148%; in [23] (setting [24]), 105%.

On to `COc1cc(F)ccc1-c1cc(Nc2cc(CS(C)(=N)=O)ccn2)ncc1F` (stereo not shown) [BAY-1251152], for which the remaining activity at 10 µM is 53.8% in test [1] (setting [25]); 107% in test [2] (setting [25]); 107% in test [3] (setting [25]); 113% in [4] (setting [25]); 104% in test [5] (setting [25]); 94.8% in test [6] (setting [25]). Moreover, the remaining activity at 10 µM in test [7] (setting [25]) turned out to be 103%; in test [8] (setting [25]), 110%; in [9] (setting [25]), 123%; in test [10] (setting [25]), 115%; in test [11] (setting [25]), 98.2%; in test [12] (setting [25]), 106%. The remaining activity at 10 µM in test [13] (setting [25]) came out at 90.9%; in [14] (setting [25]), 114%; in [15] (setting [25]), 131%; in test [16] (setting [25]), 84.6%; in test [17] (setting [25]), 163%; in test [18] (setting [25]), 147%. The remaining activity at 10 µM in [19] (setting [25]) was 145%; in test [20] (setting [25]), 60.2%; in test [21] (setting [25]), 103%; in test [22] (setting [25]), 139%; in test [23] (setting [25]) it was 94.9%.
